We go through 13 compounds from patent US4411890A, “Synthetic peptides having pituitary growth hormone releasing activity” (Beckman Instruments, Inc., priority 1981, dated 1983).

Where a SMILES comes first, the peptide text is derived from it.

One assay concerns pituitaries. Nature of the assay: In vitro growth hormone release study (incubated rat pituitaries, GH by RIA). The note with it: GH released at I3, I4 (I5) minus P2, mean ± SEM. Type of assay: cell-based. The protocol:
Female rats of the CD-1 strain were housed in a constant temperature room at 24° C. with 14 hours light and 10 hours darkness. The rats were fed Purina brand rat chow ab libitum. All studies were started between 0800 and 1000 hours.
Pituitaries were removed from 20 day old female rats. In each polytetrafluoroethylene beaker (10 ml) was incubated two pituitaries at 36° C. in 1 ml of lactated Ringer's solution in a Dubnoff Shaker (90 cycles/min.). All medium in each beaker was removed each hour (e.g., P1, P2, I3, I4, I5) and then fresh medium was added back to each beaker. Each medium removed was assayed for GH, in duplicate, by a standard radioimmunoassay (RIA).
The growth hormone agonist of Example 1 was not added to the incubation mediums employed during the first hour of the incubation period (P1) or to the incubation mediums employed during the second hour of the incubation period (P2). The growth hormone agonist of Example 1 was dissolved in dimethylsulfoxide (DMSO; 10:1, agonist:DMSO), added to each incubation medium employed during the third hour of the incubation period (I3), to each medium employed during the fourth hour of the incubation period (I4), and, when performed, to each medium employed during the fifth hour of the incubation period (I5). The release of growth hormone was recorded as ΔGH and calculated by subtracting the amount of GH released at P2 from that released at I3, I4, and, when performed, I5. The agonist activity was determined from the release at I3, I4, and, when performed, I5. The mean of the ΔGH values obtained from the three beakers per dosage level measured at I3, I4, and, when performed, I5 are set forth in Table VI.

The test system of assay [1] is Female rats of The CD-1 strain. Description: In vivo growth hormone release study (subcutaneous injection, serum GH by RIA). Details: species or system rat. The note with it: serum GH about 15 minutes after injection, 21 day old female rats, mean ± SEM. The protocol:
Female rats of The CD-1 strain were housed in a constant temperature room at 24° C. with 14 hours light and 10 hours darkness. The rats were fed Purina brand rat chow ab libitum. All studies were started between 0800 and 1000 hours. Each female rat (21 days old; eight rats per dosage level shown in Table XXVI) was injected subcutaneously with a desired dosage of the peptide of Example 6. Approximately 15 minutes after injection, the rat was guillotined. A blood sample was collected from the guillotined rat. The blood sample was centrifuged and a serum sample was collected therefrom. Each serum sample was assayed for GH, in duplicate, by a standard radioimmunoassay (RIA).

The mark [2] stands for this setting: dosage 100 ng/ml incubation medium.
Where [3] appears, read: dosage 1,000 ng/ml incubation medium.
[4] abbreviates: dosage 10,000 ng/ml incubation medium.
Where [5] appears, read: dosage 1 ng/ml incubation medium.
Where [6] appears, read: dosage 10 ng/ml incubation medium.
Setting [7] is: dosage 30 ng/ml incubation medium.
Setting [8] is: dosage 300 ng/ml incubation medium.
Where [9] appears, read: dosage 3,000 ng/ml incubation medium.
The mark [10] stands for this setting: dosage 30,000 ng/ml incubation medium.

In the case of `C[C@H](NC(=O)[C@@H](Cc1c[nH]c2ccccc12)NC(=O)[C@@H](N)Cc1ccc(O)cc1)C(=O)N[C@@H](Cc1c[nH]c2ccccc12)C(=O)N[C@H](Cc1ccccc1)C(=O)N[C@@H](CCC(N)=O)C(=O)O` [H2 -Tyr-D-Trp-Ala-Trp-D-Phe-Gln-OH] (HELM PEPTIDE1{Y.[dW].A.W.[dF].Q}$$$$V2.0), the ΔGH is listed as 753 ± 559 ng/ml incubation medium in the assay with pituitaries (setting [2]), 2,759 ± 515 ng/ml incubation medium with pituitaries (setting [3]) and 3,994 ± 1,214 ng/ml incubation medium in the assay on pituitaries (setting [4]).
Turning to `C[C@H](NC(=O)[C@@H](Cc1c[nH]c2ccccc12)NC(=O)[C@@H](N)Cc1c[nH]cn1)C(=O)N[C@@H](Cc1c[nH]c2ccccc12)C(=O)N[C@H](Cc1ccccc1)C(=O)N[C@@H](CCC(=O)O)C(N)=O` [H2 -His-D-Trp-Ala-Trp-D-Phe-Glu-NH2] (HELM PEPTIDE1{H.[dW].A.W.[dF].E.[am]}$$$$V2.0), the ΔGH in the assay on pituitaries (setting [5]) is -78 ± 72 ng/ml incubation medium; in the assay on pituitaries (dosage 3 ng/ml incubation medium), -294 ± 75 ng/ml incubation medium; with pituitaries (setting [6]), -243 ± 71 ng/ml incubation medium; in the assay with pituitaries (setting [7]), 117 ± 41 ng/ml incubation medium; in assay [1] (dosage 1.0 μg/ml serum (so in the source)), 0.10 ± 0 ng/ml subcutaneous; in assay [1] (dosage 3.0 μg/ml serum (so in the source)), 1.50 ± 0.56 ng/ml subcutaneous. Further, the values for the ΔGH in assay [1] (dosage 10.0 μg/ml serum (so in the source)) and in assay [1] (dosage 30.0 μg/ml serum (so in the source)) were 1.4 ± 0.78 ng/ml subcutaneous and 8.06 ± 2.68 ng/ml subcutaneous, respectively.
With `C[C@H](NC(=O)[C@@H](Cc1c[nH]c2ccccc12)NC(=O)[C@@H](N)Cc1ccc(O)cc1)C(=O)N[C@@H](Cc1c[nH]c2ccccc12)C(=O)N[C@H](Cc1ccccc1)C(=O)N[C@@H](CCC(N)=O)C(N)=O` [H2 -Tyr-D-Trp-Ala-Trp-D-Phe-Gln-NH2] (HELM PEPTIDE1{Y.[dW].A.W.[dF].Q.[am]}$$$$V2.0), the ΔGH in the assay on pituitaries (setting [6]) was 240 ng/ml incubation medium; in the assay on pituitaries (setting [2]), 2,000 ± 523 ng/ml incubation medium; with pituitaries (setting [3]), 4,235 ± 785 ng/ml incubation medium; in the assay with pituitaries (setting [4]), 4,141 ± 576 ng/ml incubation medium.
In the case of `C[C@H](NC(=O)[C@@H](Cc1c[nH]c2ccccc12)NC(=O)[C@@H](N)Cc1ccc(O)cc1)C(=O)N[C@@H](Cc1c[nH]c2ccccc12)C(=O)N[C@H](Cc1ccccc1)C(=O)N[C@@H](CC(N)=O)C(N)=O` [H2 -Tyr-D-Trp-Ala-Trp-D-Phe-Asn-NH2] (HELM PEPTIDE1{Y.[dW].A.W.[dF].N.[am]}$$$$V2.0), the ΔGH with pituitaries (setting [7]) was 244 ng/ml incubation medium; in the assay with pituitaries (setting [2]) it was 528 ± 184 ng/ml incubation medium; in the assay with pituitaries (setting [3]), 1,670 ± 126 ng/ml incubation medium.
In the case of `NC(=O)CC[C@H](NC(=O)[C@@H](Cc1ccccc1)NC(=O)[C@H](Cc1c[nH]c2ccccc12)NC(=O)CNC(=O)[C@@H](Cc1c[nH]c2ccccc12)NC(=O)[C@@H](N)Cc1ccc(O)cc1)C(N)=O` [H2 -Tyr-D-Trp-Gly-Trp-D-Phe-Gln-NH2] (HELM PEPTIDE1{Y.[dW].G.W.[dF].Q.[am]}$$$$V2.0), the ΔGH in the assay on pituitaries (setting [7]) is reported as 103 ± 248 ng/ml incubation medium; in the assay with pituitaries (setting [2]), 167 ng/ml incubation medium; in the assay on pituitaries (setting [3]), 1,092 ng/ml incubation medium.
For `CSCC[C@H](NC(=O)[C@@H](Cc1ccccc1)NC(=O)[C@H](Cc1c[nH]c2ccccc12)NC(=O)[C@H](C)NC(=O)[C@@H](Cc1c[nH]c2ccccc12)NC(=O)[C@@H](N)Cc1ccc(O)cc1)C(N)=O` [H2 -Tyr-D-Trp-Ala-Trp-D-Phe-Met-NH2] (HELM PEPTIDE1{Y.[dW].A.W.[dF].M.[am]}$$$$V2.0), the ΔGH with pituitaries (setting [7]) is recorded as 456 ± 151 ng/ml incubation medium; in the assay on pituitaries (setting [8]), 1,260 ± 245 ng/ml incubation medium; in the assay with pituitaries (setting [3]), 1,832 ± 441 ng/ml incubation medium.
Regarding `C[C@H](NC(=O)[C@@H](Cc1c[nH]c2ccccc12)NC(=O)[C@@H](N)Cc1ccc(O)cc1)C(=O)N[C@@H](Cc1c[nH]c2ccccc12)C(=O)N[C@H](Cc1ccccc1)C(=O)N[C@H](C(N)=O)[C@@H](C)O` [H2 -Tyr-D-Trp-Ala-Trp-D-Phe-Thr-NH2] (HELM PEPTIDE1{Y.[dW].A.W.[dF].T.[am]}$$$$V2.0), the ΔGH is 94 ± 69 ng/ml incubation medium with pituitaries (setting [6]), 650 ± 320 ng/ml incubation medium in the assay on pituitaries (setting [2]), 2,167 ± 591 ng/ml incubation medium in the assay with pituitaries (setting [3]) and 2,957 ± 834 ng/ml incubation medium in the assay on pituitaries (setting [4]).
As to `CC(C)[C@H](NC(=O)[C@@H](Cc1c[nH]c2ccccc12)NC(=O)[C@@H](N)Cc1c[nH]cn1)C(=O)N[C@@H](Cc1c[nH]c2ccccc12)C(=O)N[C@H](Cc1ccccc1)C(=O)N[C@@H](CCCCN)C(N)=O` [H2 -His-D-Trp-Val-Trp-D-Phe-Lys-NH2] (HELM PEPTIDE1{H.[dW].V.W.[dF].K.[am]}$$$$V2.0), the ΔGH with pituitaries (setting [7]) is recorded as -118 ± 65 ng/ml incubation medium.
H2 -Tyr-D-Trp-Ala-Trp-D-Phe-Lys-NH2: the ΔGH in the assay with pituitaries (setting [7]) is 1,346 ± 328 ng/ml incubation medium; in the assay on pituitaries (setting [8]) it was 2,160 ± 166 ng/ml incubation medium; with pituitaries (setting [9]) it was 1,630 ± 135 ng/ml incubation medium; in the assay on pituitaries (setting [10]) it was 1,318 ± 247 ng/ml incubation medium.
With `NCCCC[C@H](NC(=O)[C@@H](Cc1ccccc1)NC(=O)[C@H](Cc1c[nH]c2ccccc12)NC(=O)[C@H](CO)NC(=O)[C@@H](Cc1c[nH]c2ccccc12)NC(=O)[C@@H](N)Cc1c[nH]cn1)C(N)=O` [H2 -His-D-Trp-Ser-Trp-D-Phe-Lys-NH2] (HELM PEPTIDE1{H.[dW].S.W.[dF].K.[am]}$$$$V2.0), the ΔGH came out at 161 ± 157 ng/ml incubation medium in the assay with pituitaries (setting [6]) and 705 ± 149 ng/ml incubation medium with pituitaries (setting [7]).
For `C[C@H](NC(=O)[C@@H](Cc1c[nH]c2ccccc12)NC(=O)[C@@H](N)Cc1c[nH]cn1)C(=O)N[C@@H](Cc1c[nH]c2ccccc12)C(=O)N[C@H](Cc1ccccc1)C(=O)N[C@@H](CCCN)C(N)=O` [H2 -His-D-Trp-Ala-Trp-D-Phe-Orn-NH2] (HELM PEPTIDE1{H.[dW].A.W.[dF].[Orn].[am]}$$$$V2.0), the ΔGH is -295 ± 93 ng/ml incubation medium in the assay on pituitaries (setting [5]) and 356 ± 92 ng/ml incubation medium in the assay with pituitaries (setting [6]).
Regarding `C[C@H](NC(=O)[C@@H](Cc1c[nH]c2ccccc12)NC(=O)[C@@H](N)Cc1ccc(O)cc1)C(=O)N[C@@H](Cc1c[nH]c2ccccc12)C(=O)N[C@H](Cc1ccccc1)C(=O)N[C@@H](CCC(=O)O)C(N)=O` [H2 -Tyr-D-Trp-Ala-Trp-D-Phe-Glu-NH2] (HELM PEPTIDE1{Y.[dW].A.W.[dF].E.[am]}$$$$V2.0), the ΔGH with pituitaries (setting [7]) was 224 ng/ml incubation medium; with pituitaries (setting [8]), 472 ± 104 ng/ml incubation medium; in the assay on pituitaries (setting [9]) it was 1,404 ± 179 ng/ml incubation medium; with pituitaries (setting [10]), 1,909 ± 270 ng/ml incubation medium.
For `C[C@H](NC(=O)[C@@H](Cc1c[nH]c2ccccc12)NC(=O)[C@@H](N)Cc1ccc(O)cc1)C(=O)N[C@@H](Cc1c[nH]c2ccccc12)C(=O)N[C@H](Cc1ccccc1)C(=O)N[C@@H](Cc1ccccc1)C(N)=O` [H2 -Tyr-D-Trp-Ala-Trp-D-Phe-Phe-NH2] (HELM PEPTIDE1{Y.[dW].A.W.[dF].F.[am]}$$$$V2.0), in that order: 10 ± 57 ng/ml incubation medium, 330 ng/ml incubation medium, 710 ng/ml incubation medium and 1,484 ± 135 ng/ml incubation medium.
